Literature values in US6759063B2, “Methods and compositions for reducing sympathomimetic-induced side effects” (priority 1999, dated 2004).

Assays:
[1] = separate studies
[2] = tested on: human alpha1-adrenoceptors; conditions: up to the highest concentration that could be tested
[3] = tested on: cloned human alpha1A- and alpha1B-adrenoceptors; conditions: phenylephrine-stimulated; cloned receptors
[4] = rodents and humans
[5] = 150 mg/day; obese outpatients

In the case of `CCN[C@@H](C)Cc1cccc(C(F)(F)F)c1` [dexfenfluramine], the “weight loss in obese patients” value [1] is listed as “promote weight loss”.

In the case of `CC[C@H](CC[C@@H](C)[C@H]1CC[C@H]2[C@@H]3CC=C4C[C@@H](O)CC[C@]4(C)[C@H]3CC[C@]12C)C(C)C` [beta-sitosterol], the “inhibition of radioligand binding to human alpha1-adrenoceptors” value [2] is listed as “without consistent inhibitory effect” and the “inhibition of agonist-induced [3H]inositol phosphate formation” value [3] is listed as “without consistent inhibitory effect”.

For `CN[C@@H](C)[C@H](O)c1ccccc1` [ephedrine], the “thermogenic and anti-obesity properties” value [4] is listed as “potent thermogenic and anti-obesity properties” and the “adverse side effects versus placebo group” value [5] is listed as “significantly greater adverse side effects”.

In the case of `Cn1c(=O)c2c(ncn2C)n(C)c1=O` [caffeine], the “thermogenic and anti-obesity properties” value [4] is given as “no effect”.
